Source: ChEMBL document CHEMBL1949500, “Discovery of dimeric inhibitors by extension into the entrance channel of HIV-1 reverse transcriptase” (Bioorg Med Chem Lett, 2012)

Key:
[1] = tested on: MT2; test: (§1) Cytotoxicity against human MT2 cells by MTT assay; assay type: cell-based; settings: mt2
[2] = tested on: Human immunodeficiency virus 1; test: Antiviral activity against HIV1 3B infected in human MT2 cells assessed as inhibition of virus-induced cytopathic effect by MTT assay; assay type: functional, organism-based
[3] = as §1; assay type: cell-based; settings: MT2 cells
[4] = Human immunodeficiency virus 1, 3B, MT2, read-out: EC50

## COc1nc(Nc2ccc(C#N)c(OCC=C(C)C)c2)nc(OCCN2CCN(C)CC2)n1
[1]
  CC50: 7 µM
[2]; [4]
  EC50: 0.32 µM

## COc1nc(Nc2ccc(C#N)c(OCC=C(C)C)c2)nc(OCCC2CCCCO2)n1 (racemic)
[1]
  CC50: 4.2 µM
[2]; [4]
  EC50: 1.2 µM

## COc1nc(Nc2ccc(C#N)c(OCC=C(C)C)c2)nc(OCCOc2nc(Nc3ccc(C#N)c(OCC=C(C)C)c3)nc(OC)n2)n1
[1]
  CC50: 42 µM
[2]; [4]
  EC50: 0.39 µM

## Cc1ccnc2c1NC(=O)c1cccnc1N2C1CC1 [NEVIRAPINE]
[3]
  CC50: > 100 µM

## COCCOCCOc1nc(Nc2ccc(C#N)c(OCC=C(C)C)c2)nc(OC)n1
[1]
  CC50: 13 µM
[2]; [4]
  EC50: 0.15 µM

## CCc1nc(Nc2ccc(C#N)c(OCC=C(C)C)c2)nc(OCCOCCOC)n1
[1]
  CC50: 9.8 µM
[2]; [4]
  EC50: 0.54 µM

## COCCOCCOCCOc1nc(Nc2ccc(C#N)c(OCC=C(C)C)c2)nc(OC)n1
[1]
  CC50: 4.2 µM
[2]; [4]
  EC50: 0.38 µM

## COc1nc(NCCNc2nc(Nc3ccc(C#N)c(OCC=C(C)C)c3)nc(OC)n2)nc(Nc2ccc(C#N)c(OCC=C(C)C)c2)n1
[1]
  CC50: 6 µM
[2]; mt2
  EC50: Not Active

## COc1nc(Nc2ccc(C#N)c(OCC=C(C)C)c2)nc(OCCCCOc2nc(Nc3ccc(C#N)c(OCC=C(C)C)c3)nc(OC)n2)n1
[1]
  CC50: > 100 µM
[2]; mt2
  EC50: Not Active

## COc1nc(Nc2ccc(C#N)c(OCC=C(C)C)c2)nc(OCCCOc2nc(Nc3ccc(C#N)c(OCC=C(C)C)c3)nc(OC)n2)n1
[1]
  CC50: 21 µM
[2]; [4]
  EC50: 0.17 µM

## COc1nc(NCCCNc2nc(Nc3ccc(C#N)c(OCC=C(C)C)c3)nc(OC)n2)nc(Nc2ccc(C#N)c(OCC=C(C)C)c2)n1
[1]
  CC50: 50 µM
[2]; mt2
  EC50: Not Active

## CCc1nc(Nc2ccc(C#N)c(OCC=C(C)C)c2)nc(OCCOC)n1
[1]
  CC50: 2.1 µM
[2]; [4]
  EC50: 0.057 µM

## COCCOc1nc(Nc2ccc(C#N)c(OCC=C(C)C)c2)nc(OC)n1
[1]
  CC50: 8.6 µM
[2]; [4]
  EC50: 0.097 µM

## COc1nc(Nc2ccc(C#N)c(OCC=C(C)C)c2)nc(OCCOCCOc2nc(Nc3ccc(C#N)c(OCC=C(C)C)c3)nc(OC)n2)n1
[1]
  CC50: > 100 µM
[2]; mt2
  EC50: Not Active
